# Measurements published in article PMC5588088, “Topological Dissection of the Membrane Transport Protein Mhp1 Derived from Cysteine Accessibility and Mass Spectrometry” (Analytical Chemistry, 2017).
# Key:
# Mhp1 [1] = molecular target: T1, Mhp1 (Microbacterium maritypicum, UniProt D6R8X8); assay: NEM labelling of Cys327 with intact mass spectrometry, protection by ligand; type: binding; conditions: 140 mM Na+, pH 8, 25 °C, 0.05% DDM
# T1 construct: gene hyuP; full-length wild type with C-terminal His6 tag, purified in DDM
# Mhp1 [2] = molecular target: T1, Mhp1; assay: tryptophan fluorescence quenching titration; type: binding; conditions: 140 mM NaCl (also 15 and 1000 mM)
# T1 sequence (D6R8X8 whole entry): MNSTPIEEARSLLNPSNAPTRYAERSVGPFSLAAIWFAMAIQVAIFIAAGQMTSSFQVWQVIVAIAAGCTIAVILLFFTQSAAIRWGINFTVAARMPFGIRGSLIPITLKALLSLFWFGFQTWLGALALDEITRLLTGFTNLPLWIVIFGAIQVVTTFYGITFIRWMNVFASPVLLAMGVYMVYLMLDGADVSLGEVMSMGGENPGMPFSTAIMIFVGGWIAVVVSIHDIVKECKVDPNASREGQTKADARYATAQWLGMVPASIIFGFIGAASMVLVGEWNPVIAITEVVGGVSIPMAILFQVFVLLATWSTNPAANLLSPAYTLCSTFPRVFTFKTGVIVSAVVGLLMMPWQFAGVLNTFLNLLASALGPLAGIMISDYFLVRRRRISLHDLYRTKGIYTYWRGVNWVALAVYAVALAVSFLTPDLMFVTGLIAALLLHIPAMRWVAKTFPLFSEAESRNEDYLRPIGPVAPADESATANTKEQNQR
reduction in NEM labeling at 2 mM (Mhp1 [1]),Compound,Kd app (Mhp1 [2])
5-indolylmethyl-L-hydantoin (L-IMH),"O=C1NC(=O)[C@H](Cc2c[nH]c3ccccc23)N1 [L-IMH, 5-indolylmethyl-L-hydantoin]",–
–,"O=C1NC(=O)[C@H](Cc2ccccc2)N1 [L-BH, 5-benzyl-L-hydantoin]",Tryptophan fluorescence quenching of Mhp1 upon titration with L-BH
